Experiment: Solubility and compatibility in seawater (SW) and formation water (FW)
Assay type: physicochemical
Details: seawater and formation water
Procedure: Synthetic seawater (SW) and formation water (FW) were prepared using NaCl, Na2SO4, NaHCO3, CaCl2, and MgCl2. All the salts were obtained from Sigma-Aldrich, USA.
Solubility and compatibility of the surfactant in the reservoir and injection brine are the primary considerations for further evaluation of the unsaturated surfactant for EOR application. If the surfactant is not soluble in the seawater and formation brine, it can be rejected at the initial stage. […] After the compatibility test with SW and FW, the short-term thermal stability of the synthesized unsaturated surfactant was evaluated using TGA analysis. […] Only 3% weight loss was observed up to 200° C., which was mainly associated with solvent and water evaporation. […] TGA results helped to identify and eliminate the surfactants that had lower decomposition temperatures. However, for real field applications, long-term thermal stability of the surfactant must be considered, as the surfactant residence time in the reservoir could vary from a few days to a few months.

Question: With `CCCCCCCCCCCCCCCCCC(=O)NCCC[N+](C)(C)CCCS(=O)(=O)[O-]` [3-(N-stearamidopropyl-N,N-dimethylammonium)propanesulfonate, reference compound] as the compound, how does the “solubility in SW and FW” value read?
Answer: poor solubility
